Test results published in patent US10477863B2, “Use of herbicidal compositions for controlling unwanted vegetation” (BASF SE, priority 2015, dated 2019).

System: Amaranthus palmeri
Experiment: Field test, post-emergence spray: visual injury of Palmer amaranth rated 0 to 100
Type: in vivo
Conditions: 3 days after treatment, 0.25% non-ionic surfactant
Excerpt: Dicamba was applied as Engenia™ herbicide [BAPMA salt-(bis(3-aminopropyl)methylamine))], while 2,4-DB was applied as the commercially available Butyrac® 200 (dimethylamine salt). Herbicides were applied at an appropriate weight of each product dissolved in 1 liter of water. All herbicide treatments were applied with 0.25% by volume of a non-ionic surfactant (Induce®; an adjuvant composition consisting of alkyl aryl polyoxyalkane ethers, alkanolamides, dimethyl siloxane and free fatty acids). The spray solution was applied by a CO2 powered backpack sprayer delivering the spray solution at a rate of 185 liter/ha. The spray solution was applied to a field naturally populated with Palmer amaranth (Amaranthus palmeri) with an average height of 4-6 inches in height, however, plants both larger and smaller plants were in the field at the time of application as well. Palmer amaranth was assessed for visual injury 3 days after treatment and injury was rated on a scale from 0 to 100, whereby 0 equals no herbicidal response and 100 equals complete control of the Palmer amaranth.

Structure (SMILES)	herbicidal activity against Amaranthus palmeri (% control), found (2,4-DB 17.5 g/ha a.i., Exp. No. 2) [% control]	herbicidal activity against Amaranthus palmeri (% control), found (2,4-DB 35 g/ha a.i., Exp. No. 3) [% control]	herbicidal activity against Amaranthus palmeri (% control), found (2,4-DB 52.5 g/ha a.i., Exp. No. 4) [% control]	herbicidal activity against Amaranthus palmeri (% control), found (dicamba 420 g/ha a.i., Exp. No. 1) [% control]
O=C(O)CCCOc1ccc(Cl)cc1Cl [2,4-DB, 4-(2,4-Dichlorophenoxy)butanoic acid]	0	5	15	
COc1c(Cl)ccc(Cl)c1C(=O)O [dicamba, 3,6-Dichloro-2-methoxybenzoic acid]				60
